# Where “and” joins values, the source holds several entries; their conditions need not be identical. Equal entries are not always repeated. Entries after “also recorded” stand apart in the source; their conditions may differ. Where two headings read alike, the source gives them in different places.
# Assays:
# male Wistar rats = test: Operant responding for food pellets (FR5TO20); type: in vivo; conditions: SR9883 10 mg kg^−1 IP, food-restricted rats; p = 0.9868
# Description: Operant chambers (Med Associates, East Fairfield, VT, United States) were used to assess responding by rats for food pellets and intravenous nicotine infusions. […] All rats were food-restricted to maintain their body weight at approximately 85% that of free-feeding weights. They were then trained to press an active lever for 45 mg food pellets on a fixed ratio 5 time-out 20 s (FR5TO20) schedule of reinforcement. […] Rats responded for food rewards until a reliable responding was achieved, defined as >90 pellets earned per 60 min session across three consecutive sessions. […] Rats were anesthetized using 1–3% isoflurane inhalation in oxygen and catheters were implanted into the left jugular vein. […]
# Concentration-response curves of SR9883 actions in nAChR-expressing HEK cells and oocytes were fitted to the Hill equation using a nonlinear least squares curve fit method and efficacy and potency values were calculated as previously described ([Wang et al., 2015]). […] For the ICSS threshold experiment, percentages of baseline reward threshold scores were calculated by expressing the absolute threshold scores as a percentage of the scores obtained during baseline. […] Response latency data were analyzed in the same manner as the threshold data. […] Effects of SR9883 on responding for food pellets in rats was analyzed by a two-tailed paired t test. […]
# [1] = target: human (α4)2(β2)2β2/α4 (α4β2*) nAChRs (Homo sapiens, UniProt P17787+P43681); test: FLEXstation membrane potential assay in HEK cells stably expressing α4β2* nAChRs; type: cell-based; parameters: expressed in transfected cells
# Sequence of human (α4)2(β2)2β2/α4 (α4β2*) nAChRs (P43681 27-627): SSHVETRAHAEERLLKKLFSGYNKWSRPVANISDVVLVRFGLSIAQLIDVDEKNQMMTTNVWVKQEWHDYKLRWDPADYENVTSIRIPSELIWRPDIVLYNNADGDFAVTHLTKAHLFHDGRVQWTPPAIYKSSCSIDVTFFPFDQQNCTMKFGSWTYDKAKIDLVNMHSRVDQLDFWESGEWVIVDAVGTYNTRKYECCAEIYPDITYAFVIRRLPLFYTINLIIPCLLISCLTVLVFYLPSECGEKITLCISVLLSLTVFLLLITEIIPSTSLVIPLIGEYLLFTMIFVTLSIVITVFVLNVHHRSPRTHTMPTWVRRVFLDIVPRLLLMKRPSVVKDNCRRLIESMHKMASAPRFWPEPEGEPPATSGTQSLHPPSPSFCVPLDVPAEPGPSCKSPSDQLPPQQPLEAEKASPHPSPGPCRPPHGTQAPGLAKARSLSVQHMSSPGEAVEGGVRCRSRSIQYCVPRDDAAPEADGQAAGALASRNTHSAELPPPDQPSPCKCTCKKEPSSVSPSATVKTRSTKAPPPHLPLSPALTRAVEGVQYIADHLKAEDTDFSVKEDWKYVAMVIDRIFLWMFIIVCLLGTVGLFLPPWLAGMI
# Sequence of human (α4)2(β2)2β2/α4 (α4β2*) nAChRs (P17787 26-502): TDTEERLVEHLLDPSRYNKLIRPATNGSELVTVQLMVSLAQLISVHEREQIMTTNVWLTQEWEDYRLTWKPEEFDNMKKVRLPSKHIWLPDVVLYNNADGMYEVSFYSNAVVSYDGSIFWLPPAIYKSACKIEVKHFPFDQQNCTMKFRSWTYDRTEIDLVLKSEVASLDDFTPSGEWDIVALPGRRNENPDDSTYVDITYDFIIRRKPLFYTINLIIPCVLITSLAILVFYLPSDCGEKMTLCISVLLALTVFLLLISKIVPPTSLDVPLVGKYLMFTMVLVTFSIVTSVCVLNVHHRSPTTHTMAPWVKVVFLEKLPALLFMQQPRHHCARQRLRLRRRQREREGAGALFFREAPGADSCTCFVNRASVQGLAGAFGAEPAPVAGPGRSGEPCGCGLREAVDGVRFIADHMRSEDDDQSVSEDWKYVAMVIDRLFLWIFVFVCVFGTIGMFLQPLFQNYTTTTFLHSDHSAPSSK
# Excerpt: (§1) Human embryonic kidney (HEK) cell lines stably expressing human (α4)2(β2)2β2/α4 (α4β2*) nAChRs, (α4)2(β2)2α5 nAChRs, (α4)2(β2)2β3 nAChRs, (α3)2(β4)2α3/β4 (α3β4*) nAChRs, (α3)2(β2)2α3/β2 (α3β2*) nAChRs, (α3)2(β4)2α5 nAChRs, or (α3)2(β2)2α5 nAChRs were maintained as described previously ([Wang et al., 2015]; [Kuryatov et al., 2005]; [Caligiuri et al., 2022]). The FLEXstation bench top scanning fluorometer from Molecular Devices was used to assay nAChR function in these cells, according to published protocols ([Wang et al., 2015]; [Kuryatov et al., 2005]). The membrane potential kit (Molecular Devices) was used according to the manufacturer’s protocols. Serial dilutions of SR9883 were manually added to the assay plate 15 min prior to recording. […] Compound dilutions were prepared in V-shaped 96-well plates (Fisher Scientific Co.) and added to cell culture wells at a rate of 20 μL s^−1 during recording. Cells were incubated at 29°C for 6–20 h prior to assays to upregulate nAChRs ([Wang et al., 2015]; [Kuryatov et al., 2005]). Data points were averaged from 3 to 4 responses from separate wells. Potency and efficacy were calculated using the Hill equation as described previously ([Wang et al., 2015]).
# (§2) Concentration-response curves of SR9883 actions in nAChR-expressing HEK cells and oocytes were fitted to the Hill equation using a nonlinear least squares curve fit method and efficacy and potency values were calculated as previously described ([Wang et al., 2015]). Plasma and brain levels of SR9983 after oral administration were compared using a two-tailed paired t test. […] For the ICSS threshold experiment, percentages of baseline reward threshold scores were calculated by expressing the absolute threshold scores as a percentage of the scores obtained during baseline. The baseline values were the mean thresholds on the three sessions prior to drug injections. Response latency data were analyzed in the same manner as the threshold data. […] Effects of SR9883 on responding for food pellets in rats was analyzed by a two-tailed paired t test. […] Significant main or interaction effects in ANOVAs were followed by Bonferroni or Newman–Keuls post-hoc tests as appropriate. All statistical analyses were performed using GraphPad Prism software with α set to 0.05.
# [2] = target: T1, human (α3)2(β4)2α5 nAChRs (Homo sapiens, UniProt P30532+P30926+P32297); test: FLEXstation membrane potential assay in HEK cells stably expressing (α3)2(β4)2α5 nAChRs; type: cell-based; conditions: SR9883 0.0005–10 μM
# T1 construct: expressed in transfected cells
# T1 sequence (P32297 32-505): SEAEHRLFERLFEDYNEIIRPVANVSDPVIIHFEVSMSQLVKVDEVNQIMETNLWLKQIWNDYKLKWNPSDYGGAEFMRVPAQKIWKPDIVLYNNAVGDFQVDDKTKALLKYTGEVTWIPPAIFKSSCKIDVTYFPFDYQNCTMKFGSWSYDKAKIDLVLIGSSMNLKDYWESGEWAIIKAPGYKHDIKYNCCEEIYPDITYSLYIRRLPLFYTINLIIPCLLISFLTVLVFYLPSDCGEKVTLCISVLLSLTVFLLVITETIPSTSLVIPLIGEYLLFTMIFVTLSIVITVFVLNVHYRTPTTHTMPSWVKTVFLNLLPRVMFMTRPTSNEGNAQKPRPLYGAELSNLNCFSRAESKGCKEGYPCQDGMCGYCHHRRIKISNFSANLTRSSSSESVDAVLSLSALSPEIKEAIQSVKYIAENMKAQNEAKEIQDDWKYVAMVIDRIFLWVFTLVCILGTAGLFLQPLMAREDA
# T1 sequence (P30926 22-498): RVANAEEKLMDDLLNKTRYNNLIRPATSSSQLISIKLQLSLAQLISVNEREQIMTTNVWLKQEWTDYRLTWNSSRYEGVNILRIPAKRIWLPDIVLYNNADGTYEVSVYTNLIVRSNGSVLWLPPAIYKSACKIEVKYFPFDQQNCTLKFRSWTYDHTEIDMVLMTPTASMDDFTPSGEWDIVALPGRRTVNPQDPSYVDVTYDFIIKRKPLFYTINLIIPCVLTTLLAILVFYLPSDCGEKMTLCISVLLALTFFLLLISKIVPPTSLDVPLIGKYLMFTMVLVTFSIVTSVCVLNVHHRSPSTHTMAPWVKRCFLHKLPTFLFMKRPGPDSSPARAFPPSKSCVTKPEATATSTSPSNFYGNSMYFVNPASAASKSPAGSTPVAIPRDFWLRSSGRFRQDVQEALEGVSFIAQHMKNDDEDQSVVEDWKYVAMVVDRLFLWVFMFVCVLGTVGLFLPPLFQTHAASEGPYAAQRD
# T1 sequence (P30532 23-468): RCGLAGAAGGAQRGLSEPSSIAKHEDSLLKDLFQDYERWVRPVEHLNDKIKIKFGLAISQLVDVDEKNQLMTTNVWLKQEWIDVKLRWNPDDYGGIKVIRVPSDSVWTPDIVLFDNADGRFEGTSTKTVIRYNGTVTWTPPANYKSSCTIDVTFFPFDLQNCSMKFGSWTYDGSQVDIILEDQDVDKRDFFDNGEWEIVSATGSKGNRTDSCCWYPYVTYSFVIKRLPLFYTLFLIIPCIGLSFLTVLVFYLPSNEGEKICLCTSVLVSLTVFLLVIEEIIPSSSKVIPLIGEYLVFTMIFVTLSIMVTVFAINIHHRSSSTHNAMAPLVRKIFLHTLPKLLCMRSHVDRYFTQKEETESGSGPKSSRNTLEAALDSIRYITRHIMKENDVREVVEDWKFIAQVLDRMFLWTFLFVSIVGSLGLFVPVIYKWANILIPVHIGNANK
# Excerpt: (§3) Human embryonic kidney (HEK) cell lines stably expressing human (α4)2(β2)2β2/α4 (α4β2*) nAChRs, (α4)2(β2)2α5 nAChRs, (α4)2(β2)2β3 nAChRs, (α3)2(β4)2α3/β4 (α3β4*) nAChRs, (α3)2(β2)2α3/β2 (α3β2*) nAChRs, (α3)2(β4)2α5 nAChRs, or (α3)2(β2)2α5 nAChRs were maintained as described previously ([Wang et al., 2015]; [Kuryatov et al., 2005]; [Caligiuri et al., 2022]). The FLEXstation bench top scanning fluorometer from Molecular Devices was used to assay nAChR function in these cells, according to published protocols ([Wang et al., 2015]; [Kuryatov et al., 2005]). The membrane potential kit (Molecular Devices) was used according to the manufacturer’s protocols. Serial dilutions of SR9883 were manually added to the assay plate 15 min prior to recording. […] Potency and efficacy were calculated using the Hill equation as described previously ([Wang et al., 2015]).
# (§4) Concentration-response curves of SR9883 actions in nAChR-expressing HEK cells and oocytes were fitted to the Hill equation using a nonlinear least squares curve fit method and efficacy and potency values were calculated as previously described ([Wang et al., 2015]). […] For the ICSS threshold experiment, percentages of baseline reward threshold scores were calculated by expressing the absolute threshold scores as a percentage of the scores obtained during baseline. […] Response latency data were analyzed in the same manner as the threshold data. […]
# [3] = Plasma pharmacokinetics after IV or PO administration; type: in vivo, male C57BL/6J mice
# Description: Mice prepared with intravenous catheters and treated with SR9883 via oral (10 mg kg^−1) or intravenous (1 mg kg^−1) routes of administration. Blood samples were collected up to 240 min after treatment into lithium heparin coated tubes (Ram Scientific) and stored on wet ice. Blood samples were later centrifuged for 3 min at 5,000 RPM to separate plasma from red blood cells. Plasma was collected into a fresh tube and stored at −80°C. A separate group of mice was treated with SR9883 (20 mg kg^−1 PO) and killed by cervical dislocation 120 min later. Their brains were collected and stored at −80°C. SR9883 levels were quantified in plasma and brain by mass spectrometry using an ABSciex 5,500 instrument and using multiple reaction monitoring as previously described ([Radnai et al., 2021]). Brain samples were homogenized in saline and then immediately treated with twice the amount (v:v) of acetonitrile to extract the compound. Plasma samples were directly treated with acetonitrile. Samples were filtered through a 0.2 μm filter plate prior to injection onto the LC–MS/MS as previously described ([Radnai et al., 2021]).
# [4] = target: T2, human (α3)2(β2)2α5 nAChRs (Homo sapiens, UniProt P17787+P30532+P32297); test: FLEXstation membrane potential assay in HEK cells stably expressing (α3)2(β2)2α5 nAChRs; type: cell-based; conditions: SR9883 0.0005–10 μM
# T2 construct: expressed in transfected cells
# T2 sequence (P32297 32-505): as the sequence (P32297 32-505) above
# T2 sequence (P17787 26-502): as the sequence (P17787 26-502) above
# T2 sequence (P30532 23-468): as the sequence (P30532 23-468) above
# Excerpt: as §3, §4
# [5] = tested on: human (α3)2(β2)2α3/β2 (α3β2*) nAChRs; test: FLEXstation membrane potential assay in HEK cells stably expressing α3β2* nAChRs; type: cell-based; conditions: SR9883 0.0005–10 μM
# Excerpt: as §3, §4
# [6] = target: T3, human (α4)2(β2)2β3 nAChRs (Homo sapiens, UniProt P17787+P43681+Q05901); test: FLEXstation membrane potential assay in HEK cells stably expressing (α4)2(β2)2β3 nAChRs; type: cell-based; conditions: ±SEM
# T3 construct: expressed in transfected cells
# T3 sequence (P43681 29-627 limits assumed): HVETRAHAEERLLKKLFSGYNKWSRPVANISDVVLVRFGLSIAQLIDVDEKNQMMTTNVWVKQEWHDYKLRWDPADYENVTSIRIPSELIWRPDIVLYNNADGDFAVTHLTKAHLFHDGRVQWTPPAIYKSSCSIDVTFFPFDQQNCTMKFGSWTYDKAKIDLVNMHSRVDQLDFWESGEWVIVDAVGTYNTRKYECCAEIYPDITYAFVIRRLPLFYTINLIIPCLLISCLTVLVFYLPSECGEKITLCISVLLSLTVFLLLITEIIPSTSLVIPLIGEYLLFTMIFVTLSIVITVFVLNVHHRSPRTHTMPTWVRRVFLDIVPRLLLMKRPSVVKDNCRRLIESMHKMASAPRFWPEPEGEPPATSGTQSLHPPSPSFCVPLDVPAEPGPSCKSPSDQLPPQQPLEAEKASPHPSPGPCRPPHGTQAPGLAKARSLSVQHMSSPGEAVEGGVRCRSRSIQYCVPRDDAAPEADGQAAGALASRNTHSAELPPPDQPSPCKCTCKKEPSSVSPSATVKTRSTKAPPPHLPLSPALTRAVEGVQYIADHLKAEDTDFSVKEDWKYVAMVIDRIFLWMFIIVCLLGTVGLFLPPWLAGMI
# T3 sequence (P17787 26-502): as the sequence (P17787 26-502) above
# T3 sequence (Q05901 25-458 limits assumed): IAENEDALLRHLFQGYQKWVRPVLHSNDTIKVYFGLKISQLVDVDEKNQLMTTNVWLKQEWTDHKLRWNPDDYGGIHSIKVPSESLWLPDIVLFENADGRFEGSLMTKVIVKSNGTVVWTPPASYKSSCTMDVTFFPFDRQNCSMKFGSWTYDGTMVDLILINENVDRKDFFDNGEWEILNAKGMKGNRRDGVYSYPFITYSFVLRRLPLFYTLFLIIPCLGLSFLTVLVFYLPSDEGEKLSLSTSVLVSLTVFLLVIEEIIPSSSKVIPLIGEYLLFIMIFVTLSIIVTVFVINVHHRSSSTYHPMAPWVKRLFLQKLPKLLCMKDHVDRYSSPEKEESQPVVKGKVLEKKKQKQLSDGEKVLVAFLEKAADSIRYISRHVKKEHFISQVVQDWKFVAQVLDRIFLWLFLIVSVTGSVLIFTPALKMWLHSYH
# Excerpt: as §1
# Concentration-response curves of SR9883 actions in nAChR-expressing HEK cells and oocytes were fitted to the Hill equation using a nonlinear least squares curve fit method and efficacy and potency values were calculated as previously described ([Wang et al., 2015]). Plasma and brain levels of SR9983 after oral administration were compared using a two-tailed paired t test. […] For the ICSS threshold experiment, percentages of baseline reward threshold scores were calculated by expressing the absolute threshold scores as a percentage of the scores obtained during baseline. The baseline values were the mean thresholds on the three sessions prior to drug injections. Response latency data were analyzed in the same manner as the threshold data. […] Effects of SR9883 on responding for food pellets in rats was analyzed by a two-tailed paired t test. […]
# [7] = target: T4, human (α4)2(β2)2α5 nAChRs (Homo sapiens, UniProt P17787+P30532+P43681); test: FLEXstation membrane potential assay in HEK cells stably expressing (α4)2(β2)2α5 nAChRs; type: cell-based
# T4 construct: expressed in transfected cells
# T4 sequence (P43681 29-627 limits assumed): as the sequence (P43681 29-627 limits assumed) above
# T4 sequence (P17787 26-502): as the sequence (P17787 26-502) above
# T4 sequence (P30532 23-468): as the sequence (P30532 23-468) above
# Excerpt: as §1, §2
# (α4)2(β2)2α4 nAChRs = target: T5, (α4)2(β2)2α4 nAChRs (Homo sapiens, UniProt P17787+P43681); test: nAChR-mediated currents in oocytes expressing (α4)2(β2)2α4 nAChRs (unpublished observations); type: cell-based; conditions: pure stoichiometry
# T5 construct: expressed in transfected cells
# T5 sequence (P43681 29-627 limits assumed): as the sequence (P43681 29-627 limits assumed) above
# T5 sequence (P17787 26-502): as the sequence (P17787 26-502) above
# Description: as §2
# [8] = SR9883 10 μM, nicotine 0.001–50 μM
# [9] = SR9883 0.0005–10 μM on response to EC20-30 nicotine, HEK cells, ±SEM
# [10] = SR9883 0.0005–10 μM on response to EC20-30 nicotine, ±SEM
# [11] = response to EC20-30 nicotine with SR9883 relative to nicotine alone, ±SEM
# [12] = male, C57BL/6J, mouse, IV 1 mg kg^−1, plasma, n = 3
# [13] = male, C57BL/6J, mouse, PO 10 mg kg^−1, plasma, n = 3
smiles,measurement,setting,value
"N#Cc1cccc(-n2nnc(-c3cccnc3)n2)c1 [SR9883, 3-(5-(pyridin-3-yl)-2H-tetrazol-2-yl)benzonitrile]",Food responding (food pellets earned),male Wistar rats,had no effect
same,Effect on maximum response to nicotine,[1]; [8],no effect
same,EC50,[1]; [9],381 ± 91.6 nM
same,nHill,[1]; [10],1.1015 ± 0.2269
same,Efficacy,[1]; [11],108.92 ± 7.65%
same,EC50 (enhancement of response to EC20-30 nicotine),[2],no effect; also recorded: No enhancement
same,Vss_obs,"[3]; IV 1 mg kg^−1, n = 3",2.72 ± 0.89 L/kg
same,Cl_obs,"[3]; PO 10 mg kg^−1, n = 3",24.59 ± 2.42 mL/min/kg
same,half-life,"[3]; male, C57BL/6J, mouse, plasma, iv, 1 mg/kg, IV 1 mg kg^−1, as stated in text, read-out: plasma half-life (T½)",~53 min
same,Cmax,"[3]; male, C57BL/6J, mouse, plasma, iv, 1 mg/kg, IV 1 mg kg^−1, plasma, n = 3",~775 ng/mL and ~3 µM
same,half-life,"[3]; male, C57BL/6J, mouse, plasma, iv, 1 mg/kg, IV 1 mg kg^−1, plasma, n = 3, mean (S.E.M.), read-out: T1/2 (converted)",52.8 ± 21.1 min
same,half-life,"[3]; male, C57BL/6J, mouse, plasma, other: intravenous and oral, after IV and oral administration, read-out: half-life",50 to 60 min
same,half-life,"[3]; male, C57BL/6J, mouse, plasma, po, 10 mg/kg, PO 10 mg kg^−1, as stated in text, read-out: T½",~64 min
same,Cmax,"[3]; male, C57BL/6J, mouse, plasma, po, 10 mg/kg, PO 10 mg kg^−1, plasma, n = 3",1020 ± 60.6 ng/mL
same,half-life,"[3]; male, C57BL/6J, mouse, plasma, po, 10 mg/kg, PO 10 mg kg^−1, plasma, n = 3, mean (S.E.M.), read-out: T1/2 (converted)",224 ± 36.6 min
same,clearance,"[3]; male, C57BL/6J, mouse, plasma, IV 1 mg kg^−1, n = 3, read-out: Cl_obs",45.7 ± 12.8 mL/min/kg
same,AUC(0-t),[3]; [12],1.77 ± 0.62 µM·h
same,Tmax,[3]; [12],4.8 min
same,AUC(0-t),[3]; [13],21.1 ± 0.54 µM·h
same,Tmax,[3]; [13],64.8 ± 30.6 min
same,EC50 (enhancement of response to EC20-30 nicotine),[4],no effect; also recorded: No enhancement
same,EC50 (enhancement of response to EC20-30 nicotine),[5],no effect; also recorded: No enhancement
same,EC50,"[6]; SR9883 0.0005–10 μM on response to EC20-30 nicotine, HEK cells",224 ± 149 nM
same,nHill,[6]; SR9883 0.0005–10 μM on response to EC20-30 nicotine,0.8567 ± 0.3792
same,Efficacy,[6]; response to EC20-30 nicotine with SR9883 relative to nicotine alone,96.44 ± 15.93%
same,Effect on maximum response to nicotine,[7]; [8],no effect
same,EC50,[7]; [9],321 ± 98.2 nM
same,nHill,[7]; [10],0.8620 ± 0.1564
same,Efficacy,[7]; [11],146.18 ± 10.93%
same,nAChR-mediated currents,(α4)2(β2)2α4 nAChRs,enhanced nAChR-mediated currents
